# Values of other authors in patent US4530920A, “Nonapeptide and decapeptide analogs of LHRH, useful as LHRH agonist” (Syntex (U.S.A.) Inc., priority 1983, dated 1985).
# System: LHRH activity
# Conditions: 6-position Gly replaced by a D-amino acid; literature
row,Substance,activity relative to LH-RH
1,[D Ala^6 ]-LHRH,increased activity relative to LH-RH
2,[D-Leu^6 ]LHRH,increased activity relative to LH-RH
3,[D-Phe^6 ]LHRH,increased activity relative to LH-RH
4,[D-Trp^6 ]LHRH,increased activity relative to LH-RH

# Same assay, conditions: relative to LHRH; from Rivier et al. 1975 and Vale et al. 1979
row,Substance,potency (times LHRH)
1,[D-Arg^6 ]LHRH,3.9
2,"[D-Arg^6, Pro^9 -NHEt]LHRH",16.7
3,[D-LYS^6]LHRH,3.8
4,[D-Trp^6 ]LHRH,36
5,"[D-Trp^6, Pro^9 -NHEt]LHRH",144
